Experimental data as given in patent publication US20240425478A1, “CYCLOPENTYLPYRAZOLE CDK2 INHIBITORS” (Genentech, Inc., priority 2021, published 2024).
Read-outs that look alike come from different tables or passages of the source.

Key:
[1] = target: T1, Cyclin Dependent Kinase 1/Cyclin A2 (CDK1-cycA2) (Homo sapiens, UniProt P06493); assay: CDK1-cycA2 TR-FRET (Lance) enzyme assay; assay type: biochemical; conditions: for Ki: Table O, enzymatic assay; for FS CDK1/CDK2: fold selectivity, enzymatic Ki ratio
T1 construct: purchased ProQinase 0134-0054-1
T1 sequence (P06493 whole entry): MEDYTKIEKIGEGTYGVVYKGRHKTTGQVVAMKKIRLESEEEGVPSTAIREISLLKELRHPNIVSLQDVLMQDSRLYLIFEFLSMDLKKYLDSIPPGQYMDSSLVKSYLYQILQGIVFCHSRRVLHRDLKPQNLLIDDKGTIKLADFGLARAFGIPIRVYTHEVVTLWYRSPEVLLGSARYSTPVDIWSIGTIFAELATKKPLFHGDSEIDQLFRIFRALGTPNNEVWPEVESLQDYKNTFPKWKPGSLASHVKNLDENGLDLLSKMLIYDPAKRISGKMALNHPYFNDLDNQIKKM
T1 sequence (P20248 whole entry partner): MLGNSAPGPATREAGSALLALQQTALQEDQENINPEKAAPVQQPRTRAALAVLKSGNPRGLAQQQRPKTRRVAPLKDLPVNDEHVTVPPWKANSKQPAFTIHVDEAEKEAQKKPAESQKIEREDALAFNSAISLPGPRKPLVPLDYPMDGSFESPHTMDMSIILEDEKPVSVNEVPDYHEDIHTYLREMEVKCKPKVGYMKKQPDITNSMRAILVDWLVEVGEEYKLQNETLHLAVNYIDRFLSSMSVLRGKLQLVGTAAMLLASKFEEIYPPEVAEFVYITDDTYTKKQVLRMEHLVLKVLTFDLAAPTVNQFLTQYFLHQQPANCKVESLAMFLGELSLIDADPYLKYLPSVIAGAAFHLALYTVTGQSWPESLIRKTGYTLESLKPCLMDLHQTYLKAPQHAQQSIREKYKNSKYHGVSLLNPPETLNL
How it was run: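 TR-FRET (Lance) detection of phospho-4E-BP1 with a europium-labelled antibody after EDTA quench (15 mM final); signal taken as acceptor/donor ratio. Enzyme and compound were pre-incubated 30 min in HEPES pH 7.5 buffer with MgCl2, TCEP, BGG and Brij 35. Ki derived by Morrison fit.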

[2] = system: OVISE (JCRB1043, CCNE1-amplified); assay: OVISE EdU incorporation cell proliferation assay (CDK2-dependent); assay type: cell-based; conditions: for IC50: cellular assay, read-out: CDK2 OVISE IC50; for FS SKOV-3/OVISE / FS p-H3/OVISE: fold selectivity; for FS p-H3/OVISE: cellular p-H3 IC50 over OVISE IC50; for increased fold-selectivity SKOV-3/OVISE over Comparator C: (+) sign after FS SKOV-3/OVISE; for improvement in CDK2 OVISE cell potency over Comparator C / CDK2 OVISE IC50 fold change in potency versus Comparator D / CDK2 OVISE IC50 fold change in potency versus Comparator E: in brackets after OVISE IC50; for improvement in CDK2 OVISE cell potency over Comparator C: Comparator C 5.5 μM; for CDK2 OVISE IC50 fold change in potency versus Comparator D: Table R; for CDK2 OVISE IC50 fold change in potency versus Comparator E: Table S; for CDK2 cell potency compared with Comparator E: CDK2 OVISE cellular assay data
How it was run: (§1)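 EdU incorporation (0.5 μM final, last 8 h) follows a 16 h compound exposure at 37 °C, 5% CO2 in RPMI plus 10% FBS, 0.5% DMSO. After fixation, imaging scores EdU-positive cells; a 4-parameter logistic fit of that fraction gives IC50.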

[3] = target: T2, Cyclin Dependent Kinase 4/Cyclin D3 (CDK4-cycD3) (Homo sapiens, UniProt P11802); assay: CDK4-cycD3 TR-FRET (LANCE) enzyme assay; assay type: biochemical; conditions: for Ki: Table O, enzymatic assay; for FS CDK4/CDK2: fold selectivity, enzymatic Ki ratio
T2 construct: purchased Carna Biosciences 04-105
T2 sequence (P11802 whole entry): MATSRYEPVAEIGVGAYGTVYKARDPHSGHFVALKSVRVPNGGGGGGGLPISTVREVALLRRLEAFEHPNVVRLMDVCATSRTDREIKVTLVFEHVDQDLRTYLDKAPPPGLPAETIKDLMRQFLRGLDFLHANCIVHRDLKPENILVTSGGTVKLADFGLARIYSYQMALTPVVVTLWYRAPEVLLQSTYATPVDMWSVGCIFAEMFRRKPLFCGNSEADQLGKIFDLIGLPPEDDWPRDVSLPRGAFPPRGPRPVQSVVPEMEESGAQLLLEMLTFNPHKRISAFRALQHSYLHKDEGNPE
T2 sequence (P30281 whole entry partner): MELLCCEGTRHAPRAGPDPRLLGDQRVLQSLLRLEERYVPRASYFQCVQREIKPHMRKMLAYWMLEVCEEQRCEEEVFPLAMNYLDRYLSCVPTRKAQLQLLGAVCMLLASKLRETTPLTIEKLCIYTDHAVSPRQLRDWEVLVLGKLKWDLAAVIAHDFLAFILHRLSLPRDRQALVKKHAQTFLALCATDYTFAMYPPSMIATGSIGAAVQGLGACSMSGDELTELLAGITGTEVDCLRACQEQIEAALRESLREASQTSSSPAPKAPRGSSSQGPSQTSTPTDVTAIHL
How it was run: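 Compound dose responses pre-incubated 30 min with enzyme mix in 50 mM HEPES pH 7.5, 10 mM MgCl2, 2 mM TCEP, 0.05% BGG, 0.01% Brij 35. Reaction quenched with EDTA (15 mM final); Eu-anti-phospho-4E-BP1 TR-FRET detection, acceptor/donor ratio. Ki derived by Morrison equation.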

[4] = target: T3, Cyclin Dependent Kinase 2/Cyclin E1 (CDK2-cycE1) (Homo sapiens, UniProt P24941); assay: CDK2-cycE1 TR-FRET (LANCE) enzyme assay; assay type: biochemical; conditions: for Ki: enzymatic assay, read-out: CDK2 Ki; for FS CDK1/CDK2 / FS CDK4/CDK2: fold selectivity; for increased fold-selectivity CDK1/CDK2 over Comparator C: (+) sign after FS CDK1/CDK2; for increased fold-selectivity CDK4/CDK2 over Comparator C: (+) sign after FS CDK4/CDK2; for CDK2 Ki fold change in potency versus Comparator D / CDK2 Ki fold change in potency versus Comparator E: in brackets after CDK2 Ki;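 for improvement in potency against CDK2 (Ki) over Comparator C: fold lower CDK2 Ki than comparator c (Ki 0.032 µM)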
T3 construct: purchased ProQinase 0050-0055-1
How it was run: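 Kinase reaction buffer: 50 mM HEPES pH 7.5, 10 mM MgCl2, 2 mM TCEP, 0.05% BGG, 0.01% Brij 35, with 30 min compound–enzyme pre-incubation.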

SKOV-3 (ATCC HTB-77) = assay: SKOV-3 EdU incorporation cell proliferation assay (CDK4/6-dependent); assay type: cell-based; conditions: for IC50: Homo sapiens, cellular assay, read-out: CDK4/6 SKOV-3 IC50; for selectivity for CDK2 over CDK4 compared with Comparator E: SKOV-3/OVISE fold-selectivity cellular assay data; for FS SKOV-3/OVISE: fold selectivity, cellular IC50 ratio
How it was run: as §1

HCT116 cells = assay: p-H3 HCT-116 mitotic release cell proliferation assay (cellular CDK1); assay type: cell-based; conditions: Homo sapiens, HCT-116; Table O, cellular assay; read-out: CDK1 p-H3 IC50
How it was run: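 Phospho-Histone H3 (Ser10) in lysates was quantified by a two-antibody HTRF FRET read (≥2 h, room temperature). Before this, HCT116 cells held in mitosis by 16 h of 500 nM nocodazole were treated with compound for 4 h at 37 °C, 0.1% DMSO.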

[5] = Table O, cellular SKOV-3 IC50 over OVISE IC50
[6] = Table O, enzymatic CDK1 Ki over CDK2 Ki
[7] = Table O, enzymatic CDK4 Ki over CDK2 Ki

SMILES	Ki [1] [µM]	IC50 ([2]; Table O) [µM]	FS SKOV-3/OVISE [2, 5]	FS p-H3/OVISE ([2]; Table O)	Ki [3] [µM]	Ki ([4]; Table O) [µM]	FS CDK1/CDK2 [4, 6]	FS CDK4/CDK2 [4, 7]	IC50 (SKOV-3 (ATCC HTB-77); SK-OV-3, Table O) [µM]	IC50 (HCT116 cells) [µM]	FS CDK1/CDK2 ([1]; Table R)	FS CDK1/CDK2 ([1]; Table S)	CDK2 OVISE IC50 fold change in potency versus Comparator D [2] [fold]	CDK2 OVISE IC50 fold change in potency versus Comparator E [2] [fold]	FS CDK4/CDK2 increased over Comparator D, (+) sign ([3]; Table R)	FS CDK4/CDK2 ([3]; Table R)	FS CDK4/CDK2 ([3]; Table S)	Ki ([4]; Table R) [µM]	CDK2 Ki fold change in potency versus Comparator D ([4]; Table R) [fold]	Ki ([4]; Table S) [µM]	further results
CC(C)NC(=O)O[C@@H]1CC[C@H](c2cc(Nc3ccc(-n4ccnc4)cn3)n[nH]2)C1 [Example 2EE, (1R,3S)-3-(3-((5-(1H-imidazol-1-yl)pyridin-2-yl)amino)-1H-pyrazol-5-yl)cyclopentyl isopropylcarbamate]	0.29	0.34	29	2.6	0.19	0.0032	91	59	9.7	0.9											increased fold-selectivity SKOV-3/OVISE over Comparator C ([2]; Table Q): (+) (The (+) sign in Table Q signifies desirable increased fold-selectivity of the exemplary compounds over Comparator C); FS SKOV-3/OVISE ([2]; Table Q, cellular): 29; improvement in CDK2 OVISE cell potency over Comparator C ([2]; Table Q): 16 fold; improvement in potency against CDK2 (Ki) over Comparator C [4]: 10 fold; increased fold-selectivity CDK1/CDK2 over Comparator C ([4]; Table Q): (+) (The (+) sign in Table Q signifies desirable increased fold-selectivity of the exemplary compounds over Comparator C); increased fold-selectivity CDK4/CDK2 over Comparator C ([4]; Table Q): (+) (The (+) sign in Table Q signifies desirable increased fold-selectivity of the exemplary compounds over Comparator C); Ki ([4]; Table Q): 0.0032 µM; FS CDK1/CDK2 ([4]; Table Q, enzymatic): 91; FS CDK4/CDK2 ([4]; Table Q, enzymatic): 59; IC50 (SKOV-3 (ATCC HTB-77); SK-OV-3, Table Q): 9.7 µM
CC(C)(C)NC(=O)O[C@@H]1CC[C@H](c2cc(Nc3cccnn3)n[nH]2)C1 [Example 4I, (1R,3S)-3-(3-(pyridazin-3-ylamino)-1H-pyrazol-5-yl)cyclopentyl tert-butylcarbamate]	0.045	0.24	20	0.63	0.033	0.0025	18	13	4.9	0.15	18	18	16	0.7	(+)	13	13	0.0025	1.1	0.0025	CDK2 Ki fold change in potency versus Comparator E ([4]; Table S): 0.2 fold; selectivity for CDK2 over CDK4 compared with Comparator E (SKOV-3 (ATCC HTB-77)): increase in selectivity for CDK2 over CDK4; FS SKOV-3/OVISE increased over Comparator D, (+) sign (SKOV-3 (ATCC HTB-77); Table R): (+); FS SKOV-3/OVISE (SKOV-3 (ATCC HTB-77); Table R): 20; FS SKOV-3/OVISE increased over Comparator E, (+) sign (SKOV-3 (ATCC HTB-77); Table S): (+); FS SKOV-3/OVISE (SKOV-3 (ATCC HTB-77); Table S): 20
CC(C)(C)NC(=O)O[C@@H]1CC[C@H](c2cc(Nc3ccncc3)n[nH]2)C1 [Example 4H, (1R,3S)-3-(3-(pyridin-4-ylamino)-1H-pyrazol-5-yl)cyclopentyl tert-butylcarbamate]	0.18	0.038	25	1.4	0.11	0.002	90	55	0.95	0.054	90	90	100	4.4	(+)	55	55	0.002	1.4	0.002	FS CDK1/CDK2 increased over Comparator D, (+) sign ([1]; Table R): (+); FS CDK1/CDK2 increased over Comparator E, (+) sign ([1]; Table S): (+); CDK2 cell potency compared with Comparator E [2]: more potent CDK2 cell inhibitors compared to Comparator E; FS CDK4/CDK2 increased over Comparator E, (+) sign ([3]; Table S): (+); CDK2 Ki fold change in potency versus Comparator E ([4]; Table S): 0.3 fold; selectivity for CDK2 over CDK4 compared with Comparator E (SKOV-3 (ATCC HTB-77)): increase in selectivity for CDK2 over CDK4; FS SKOV-3/OVISE increased over Comparator D, (+) sign (SKOV-3 (ATCC HTB-77); Table R): (+); FS SKOV-3/OVISE (SKOV-3 (ATCC HTB-77); Table R): 25; FS SKOV-3/OVISE increased over Comparator E, (+) sign (SKOV-3 (ATCC HTB-77); Table S): (+); FS SKOV-3/OVISE (SKOV-3 (ATCC HTB-77); Table S): 25
Cc1cc(Nc2cc([C@H]3CC[C@@H](OC(=O)NC45CC(C4)C5)C3)[nH]n2)ccn1 [Example 9, (1R,3S)-3-(3-((2-methylpyridin-4-yl)amino)-1H-pyrazol-5-yl)cyclopentyl bicyclo[1.1.1]pentan-1-ylcarbamate]	0.061	0.17	19	1.2	0.15	0.0019	32	79	3.3	0.21											
CC(C)NC(=O)O[C@@H]1CC[C@H](c2cc(Nc3cccnc3)n[nH]2)C1 [Example 2A, (1R,3S)-3-(3-(pyridin-3-ylamino)-1H-pyrazol-5-yl)cyclopentyl isopropylcarbamate]	0.071	0.11	20	0.66	0.075	0.0017	42	44	2.2	0.094	42	42	35	1.5	(+)	44	44	0.0017	1.6	0.0017	FS CDK1/CDK2 increased over Comparator D, (+) sign ([1]; Table R): (+); CDK2 cell potency compared with Comparator E [2]: more potent CDK2 cell inhibitors compared to Comparator E; increased fold-selectivity SKOV-3/OVISE over Comparator C ([2]; Table Q): (+) (The (+) sign in Table Q signifies desirable increased fold-selectivity of the exemplary compounds over Comparator C); FS SKOV-3/OVISE ([2]; Table Q, cellular): 20; improvement in CDK2 OVISE cell potency over Comparator C ([2]; Table Q): 50 fold; improvement in potency against CDK2 (Ki) over Comparator C [4]: 19 fold; increased fold-selectivity CDK1/CDK2 over Comparator C ([4]; Table Q): (+) (The (+) sign in Table Q signifies desirable increased fold-selectivity of the exemplary compounds over Comparator C); increased fold-selectivity CDK4/CDK2 over Comparator C ([4]; Table Q): (+) (The (+) sign in Table Q signifies desirable increased fold-selectivity of the exemplary compounds over Comparator C); Ki ([4]; Table Q): 0.0017 µM; FS CDK1/CDK2 ([4]; Table Q, enzymatic): 42; FS CDK4/CDK2 ([4]; Table Q, enzymatic): 44; CDK2 Ki fold change in potency versus Comparator E ([4]; Table S): 0.3 fold; IC50 (SKOV-3 (ATCC HTB-77); SK-OV-3, Table Q): 2.2 µM; IC50 (SKOV-3 (ATCC HTB-77); SK-OV-3, Table R): 2.2 µM; IC50 (SKOV-3 (ATCC HTB-77); SK-OV-3, Table S): 2.2 µM; selectivity for CDK2 over CDK4 compared with Comparator E (SKOV-3 (ATCC HTB-77)): increase in selectivity for CDK2 over CDK4; FS SKOV-3/OVISE increased over Comparator D, (+) sign (SKOV-3 (ATCC HTB-77); Table R): (+); FS SKOV-3/OVISE (SKOV-3 (ATCC HTB-77); Table R): 20; FS SKOV-3/OVISE increased over Comparator E, (+) sign (SKOV-3 (ATCC HTB-77); Table S): (+); FS SKOV-3/OVISE (SKOV-3 (ATCC HTB-77); Table S): 20
CN1CCN(c2ccc(Nc3cc([C@H]4CC[C@@H](OC(=O)NC56CC(C5)C6)C4)[nH]n3)cn2)CC1 [Example 9H, (1R,3S)-3-(3-((6-(4-methylpiperazin-1-yl)pyridin-3-yl)amino)-1H-pyrazol-5-yl)cyclopentyl bicyclo[1.1.1]pentan-1-ylcarbamate]	0.03	0.15	1	0.26	0.0095	0.0047	6.4	2	0.15	0.039											
